This passage reports MIC results from DBAASP.

A word on the MIC: it is the lowest concentration found to suppress growth. A high value points to weaker potency.

Among the test systems are Streptococcus pyogenes; Proteus mirabilis; Klebsiella pneumoniae; Enterococcus faecium; Escherichia coli ML-35p; Escherichia coli BAS 849.
What all share (experiment): ≥ marks a high value that may be exact or a test limit, other limits are often not marked, values filed in µg/mL are converted to µM
Assay [1] deals with Micrococcus luteus ATCC 10240.
Assay [2] deals with Escherichia coli ATCC 25922.
The test system of assay [3] is Bacillus subtilis ATCC 6633.
The test system of assay [4] is Stenotrophomonas maltophilia ATCC 13637.
Assay [5] deals with Staphylococcus aureus ATCC 25923.
Assay [6] concerns Pseudomonas aeruginosa ATCC 27853.
For assay [7], the system named is Staphylococcus epidermidis.
For assay [8], the system named is Candida albicans ATCC 90112.
Assay [9] relates to Staphylococcus aureus ΔmprFpRBsyn.
The subject of assay [10] is Staphylococcus aureus ΔmprF.
For assay [11], the system named is Staphylococcus aureus 30371.
Assay [12] deals with Enterococcus faecalis ATCC 29212.
The test system of assay [13] is Candida albicans ATCC 10231.
Assay [14] concerns Salmonella enterica serovar typhimurium MS7953s.
Assay [15] has as its system Salmonella enterica subsp. enterica serovar Typhimurium ATCC 14028s.
For assay [16], the system named is Pseudomonas aeruginosa SBI-N.
For assay [17], the system named is Listeria monocytogenes EGD.
Assay [18] relates to Staphylococcus aureus 28841.
Assay [19] concerns Pseudomonas aeruginosa MR2123.
The subject of assay [20] is Enterococcus faecalis CDC 21.
The test system of assay [21] is Pseudomonas aeruginosa MR3007.
Assay [22] relates to Enterococcus faecium 94-132.
The subject of assay [23] is Staphylococcus aureus 930918-3.

Values after ≈ are worked out from the molar mass of the structure shown. Values joined by “and” are separate entries in the source; they are usually repeats but may differ in a detail not shown here. Equal entries are not always repeated.

`CC[C@H](C)[C@H](NC(=O)[C@H](CC(=O)O)NC(=O)[C@@H](N)Cc1ccccc1)C(=O)N[C@@H](CCSC)C(=O)NCC(=O)N[C@@H](CC(C)C)C(=O)N[C@H](C(=O)N[C@@H](CCCCN)C(=O)N[C@@H](CCCCN)C(=O)N[C@H](C(=O)N[C@@H](C)C(=O)NCC(=O)N[C@@H](C)C(=O)N[C@@H](CC(C)C)C(N)=O)C(C)C)[C@@H](C)CC` [FDIMGLIKKVAGAL]: the MIC against Streptococcus pyogenes is 30 µM (≈ 44.2 µg/mL); in [1] it was 30 µM (≈ 44.2 µg/mL); in the assay on Proteus mirabilis it was at least 60 µM; in assay [2], 30 µM (≈ 44.2 µg/mL); in assay [3], 30 µM (≈ 44.2 µg/mL); in assay [4] it was 30 µM (≈ 44.2 µg/mL). Further, the MIC was 30 µM (≈ 44.2 µg/mL) in assay [5], over 30 µM in [6], 30 µM (≈ 44.2 µg/mL) in assay [7] and 7.5 µM (≈ 11.1 µg/mL) in assay [8].
As to `CC(C)C[C@H](NC(=O)[C@@H](NC(=O)CNC(=O)[C@H](CCCN=C(N)N)NC(=O)[C@@H](NC(=O)[C@H](CCCN=C(N)N)NC(=O)[C@@H](NC(=O)[C@H](Cc1ccc(O)cc1)NC(=O)[C@H](C)NC(=O)[C@H](Cc1ccc(O)cc1)NC(=O)[C@@H](NC(=O)[C@H](CO)NC(=O)[C@H](Cc1c[nH]c2ccccc12)NC(=O)[C@@H](N)CCCN=C(N)N)C(C)C)C(C)C)C(C)C)C(C)C)C(=O)N[C@H](C(=O)N[C@@H](CCCN=C(N)N)C(=O)N[C@@H](Cc1ccc(O)cc1)C(=O)N[C@@H](CCCN=C(N)N)C(=O)N[C@@H](CCCN=C(N)N)C(=O)N[C@@H](CO)C(=O)N[C@@H](Cc1c[nH]c2ccccc12)C(=O)O)C(C)C` [RWSVYAYVRVRGVLVRYRRSW], the MIC in assay [9] was 2.93 µM and 5.86 µM; in assay [10], 2.93 µM (≈ 8 µg/mL).
For the compound `CC[C@H](C)[C@H](N=C(O)[C@H](CCCCN)N=C(O)CN=C(O)[C@H](CC(C)C)N=C(O)[C@H](Cc1ccccc1)N=C(O)[C@H](CCC(=N)O)N=C(O)[C@H](Cc1ccccc1)N=C(O)[C@@H](N)C(C)C)C(O)=N[C@H](C(O)=N[C@@H](Cc1cnc[nH]1)C(O)=N[C@@H](Cc1cnc[nH]1)C(O)=N[C@H](C(O)=NCC(O)=N[C@@H](CC(=N)O)C(O)=N[C@@H](Cc1ccccc1)C(O)=N[C@H](C(O)=N[C@@H](Cc1cnc[nH]1)C(O)=NCC(O)=N[C@@H](Cc1ccccc1)C(O)=N[C@@H](CO)C(O)=N[C@@H](Cc1cnc[nH]1)C(O)=N[C@H](C(O)=N[C@@H](Cc1ccccc1)C(=N)O)C(C)C)C(C)C)C(C)C)[C@@H](C)CC` [VFQFLGKIIHHVGNFVHGFSHVF], the MIC against Klebsiella pneumoniae was 0.45 µM (≈ 1.2 µg/mL); in assay [11], 1.01 µM (≈ 2.7 µg/mL); against Enterococcus faecium, 0.113 µM (≈ 0.3 µg/mL); in assay [12], 96 µM (≈ 256 µg/mL); in assay [13], 48 µM and > 24 µM; in assay [14], 0.15 µM (≈ 0.4 µg/mL). The MIC in assay [15] was 0.6 µM (≈ 1.6 µg/mL); in assay [16], 0.375 µM (≈ 1 µg/mL); in [17], 0.15 µM (≈ 0.4 µg/mL); in [18], 0.712 µM (≈ 1.9 µg/mL); in assay [2], 96 µM (≈ 256 µg/mL); in [19] it was 0.3 µM (≈ 0.8 µg/mL). In addition, the MIC worked out at 0.225 µM (≈ 0.6 µg/mL) in assay [20]; 0.562 µM (≈ 1.5 µg/mL) with Escherichia coli ML-35p; 0.562 µM (≈ 1.5 µg/mL) in the assay on Escherichia coli BAS 849; 0.412 µM (≈ 1.1 µg/mL) in assay [21]; 0.075 µM (≈ 0.2 µg/mL) in assay [22]; 0.637 µM (≈ 1.7 µg/mL) in [23].
